Reference: patent publication US9386766B2, “Insect attractant compositions” (University of Greenwich, priority 2009, dated 2016)

Key:
[1] = system: Bombus spp.; experiment: Floral bait trap catches of non-target insects (Example 2); format: in vivo; details: Trial 1; Narakoduru, Warangal District, AP, India; Cotton
Description: (§1) In addition, five pheromone baited traps (baited with the pheromone of the key Helicoverpa and related spp.) were used as standards for each target species. Lures were changed every two to three weeks.
(§2) The choice of pheromone trap depended on local availability. In India, the preferred trap was the standard Pheromone Chemicals Ltd. plastic funnel trap, while in Bangladesh a plastic water trap was used. Pheromone lures for the trials were provided by NRI. In India and Bangladesh, H. armigera, Maruca vitrata, Earias vittella and Pectinophora gossypiella lures were provided.
(§3) The floral baits were provided in sealed lay-flat polyethylene sachets. The sachets were hung inside the traps in the same way as the pheromone lures. Traps were supported at crop height and the height was adjusted periodically to account for crop growth. Yellow-coloured traps were avoided in order to deter pollinators. Preferably, traps should be colourless or green-coloured. Trap covers were opaque. Where necessary, a killing agent was incorporated into each trap—to ensure insects were dead before opening the trap to count catches.
(§4) In Tables 17 to 23 the total catches of selected Lepidoptera, Hymenoptera (Apis mellifera and Bombus spp.) and Diptera are shown.

[2] = system: Diaphania indica; experiment: as above; format: in vivo; details: Trial 1; Narakoduru, Warangal District, AP, India; Cotton
Description: as §1, §2, §3, §4

[3] = system: Autographa gama; experiment: as above; format: in vivo; details: Trial 1; Narakoduru, Warangal District, AP, India; Cotton
Description: as §1, §2, §3, §4

[4] = system: Diptera; experiment: as above; format: in vivo; details: Trial 1; Narakoduru, Warangal District, AP, India; Cotton
Description: as §1, §2, §3, §4

[5] = system: Apis mellifera; experiment: as above; format: in vivo; details: Trial 1; Narakoduru, Warangal District, AP, India; Cotton
Description: as §1, §2, §3, §4

[6] = system: Parnara guttatus; experiment: as above; format: in vivo; details: Trial 1; Narakoduru, Warangal District, AP, India; Cotton
Description: as §1, §2, §3, §4

[7] = system: Other Lepidoptera; experiment: as above; format: in vivo; details: Trial 1; Narakoduru, Warangal District, AP, India; Cotton
Description: as §1, §2, §3, §4

[8] = system: Lampides boeticus; experiment: as above; format: in vivo; details: Trial 1; Narakoduru, Warangal District, AP, India; Cotton
Description: as §1, §2, §3, §4

[9] = system: Spodoptera litura; experiment: as above; format: in vivo; details: Trial 1; Narakoduru, Warangal District, AP, India; Cotton
Description: as §1, §2, §3, §4

[10] = system: H. armigera; experiment: Field trials in India and Bangladesh: floral bait trap catches, Trials 1-5 (Example 2); format: in vivo, Helicoverpa armigera; details: Trial 1; Jessore; Country bean
[11] = system: All Lepidoptera; experiment: Field trials in India: floral bait trap catches, Trials 1-5 (Example 2); format: in vivo; details: Trial 1; for Total catches All Lepidoptera: Cotton; for Attractiveness to the non-target species recorded: species of Table 17
Description: as §1, §2, §3
(§5) Trial 1 was designed to investigate the effect of altering the relative amount of the two main components, phenylacetaldhyde and salicylaldehyde on catch. The trial was laid out in cotton fields at four locations: Narakoduru and Jammikunta in Andhra Pradesh, India, and Shreepur and Jessore in Bangladesh.
In India, records were taken of all Lepidopterous species caught in the traps. The total Lepidoptera catches reflected the general trends in H. armigera catches. […] Thus blends containing between 3 and 30 percent salicylaldehyde relative to phenylacetaldehyde were on average the most attractive of the binary blends tested. […]

[12] = system: H. armigera; experiment: Field trials in India and Bangladesh: floral bait trap catches, Trials 1-5 (Example 2); format: in vivo, Helicoverpa armigera; details: Trial 1; for Total catches H. armigera: Cotton
Description: as §1, §2, §3, §5
In Trial 2, the standard 5-component blend used in Example 1 (96/12) was compared to: Magnet® (96/10), Li et al. (2005) (96/11) and a binary blend of phenylacetaldehyde and salicylaldehyde (96/13).
In Trial 3, a third component was added to a roughly 70:30 blend of phenylacetaldehyde:salicylaldehyde, to assess whether the additional compound made the binary blend more attractive to nocturnal Lepidoptera. The compositions of the blends tested are shown in Table 11 and the results in Table 12.
In Trial 4, two compounds were added to a 70:30 blend of phenylacetaldehyde:salicylaldehyde, to assess whether the additional compounds made the binary blend more attractive to nocturnal Lepidoptera. The compositions of the blends tested are shown in Table 13 and the results in Table 14.
In Trial 5, the three compounds, methyl 2-methoxybenzoate, linalool and limonene were added to the binary 70:30 blend of phenylacetaldehyde:salicylaldehyde in two ratios, 1:1:1 and 1:1:0.5 at 3, 9, 30 and 90% w/w of the binary blend, to assess whether the additional compounds made the binary blend more attractive to nocturnal Lepidoptera. The compositions of the blends tested are shown in Table 15 and the results in Table 16.

[13] = system: female Helicoverpa armigera; details: Pawar et al., 1993; cited from earlier work
[14] = system: H. armigera; experiment: Field trials in Bangladesh: trap catch with floral odour lures (Example 1); format: in vivo, Helicoverpa armigera; details: Table 1; increasing relative amount of minor components; adult H. armigera
Method: Lures were prepared from heat-sealed low density polyethylene sachets formed from ‘layflat plastic’ tubing. In early field work, the lures were prepared on site, with each lure comprising a single compound in a dose of 0.1 ml. The release rate of compounds from the polyethylene sachets is independent of the amount of material in the sachet and so a particular dosage affects longevity only. Longevity, in turn, is dependent on ambient temperature, with an increase of 7-10° C. leading to a doubling of the release rate. Water traps were placed at crop height and trap catches were taken as a crude measure of attractiveness to the compounds. As the compounds mimic ‘floral odours’ generally, they were not expected to be species-specific in their effect.
During testing, different combinations of floral odours, together with H. armigera pheromone, were used as attractants. The chemicals were put inside sealed plastic sachets (10×5 cm) and the sachets were hung inside traps prepared from clear plastic pots (19 cm height, 15 cm dia.) with two triangular holes (12 cm base, 9 cm height) at opposite sides. The traps were set at 1 m height with an inter-trap distance of 10 m. Insects that were trapped by the lures were collected, identified and recorded at weekly intervals.

SMILES	Total catches Bombus spp. [1]	Total catches Diaphania indica [2]	Total catches Autogr. gama [3]	Total catches Diptera [4]	Total catches Apis mellifera [5]	Total catches Parnara guttat. [6]	Total catches Other Lepidop. [7]	Total catches Lampides boeticus [8]	Total catches Spodopt. litura [9]	Total catches H. armigera [10]	Total catches All Lepidoptera ([11]; Jammikunta KVK)	Total catches All Lepidoptera ([11]; Narakoduru, Guntur)	Attractiveness to the non-target species recorded [11]	Attractiveness to H. armigera [12]	Total catches H. armigera ([12]; Jammikunta KVK)	Total catches H. armigera ([12]; Jessore)	Total catches H. armigera ([12]; Narakoduru, Guntur)	Total catches H. armigera ([12]; Shreepur)	Attraction of female Helicoverpa armigera [13]	H. armigera Catch [14]
O=Cc1ccccc1O [96/01, salicylaldehyde]	0	1	0	1	10	0	6	0	1	3	3	8	unattractive	attractive	0	16	0	1	–	–
O=CCc1ccccc1 [96/09, phenylacetaldehyde]	1	13	12	8	18	14	67	1	1	0	15	94	attractive	–	1	30	1	20	strong attractant	9
